According to patent EP2857388A1, “Azoles containing sulfone” (Grünenthal GmbH, priority 2013, dated 2015):

molecular target: T1, human B1R (Homo sapiens, UniProt P46663); assay: Functional assay at bradykinin receptor 1 (B1R): Ca2+ fluorescence (Fluo-4) in FLIPR/Novostar, antagonist mode; format: cell-based; details: test substance 10 µM; CHO K1 cells stably transfected with human B1R gene (hB1R-Zellen); agonist Lys-Des-Arg9-Bradykinin at EC80; % inhibition relative to maximal achievable inhibition
T1 construct: expressed in transfected cells; host or cells: CHO K1 cells (Chinese Hamster Ovary), stably transfected
T1 sequence (P46663 1-353): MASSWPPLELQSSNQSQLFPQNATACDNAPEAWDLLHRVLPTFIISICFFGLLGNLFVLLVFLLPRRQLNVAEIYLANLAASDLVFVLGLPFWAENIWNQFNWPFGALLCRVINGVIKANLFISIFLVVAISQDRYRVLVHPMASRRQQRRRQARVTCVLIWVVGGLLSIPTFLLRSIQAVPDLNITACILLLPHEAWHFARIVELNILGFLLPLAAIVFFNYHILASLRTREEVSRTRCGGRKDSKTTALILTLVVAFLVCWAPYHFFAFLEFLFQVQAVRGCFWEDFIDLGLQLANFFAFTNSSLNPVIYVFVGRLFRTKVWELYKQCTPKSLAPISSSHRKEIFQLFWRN
Description: Die agonistische bzw. antagonistische Wirkung von Substanzen kann am Bradykinin Rezeptor 1 (B1R) der Spezies Mensch und Ratte mit ektopisch exprimierenden Zelllinien (CHO K1 Zellen) und mit Hilfe eines Ca^2+-sensitiven Farbstoffs (Fluo-4) im Fluorescent Imaging Plate Reader (FLIPR) quantifiziert werden. Die Angabe in % Aktivierung wird bezogen auf das Ca^2+-Signal nach Zugabe von Lys-Des-Arg^9-Bradykinin ([…]), bzw. Des-Arg^9-Bradykinin (100 nM). Antagonisten führen zu einer Unterdrückung des Ca^2+-Einstroms nach der Zugabe des Agonisten. Angegeben werden % Inhibition im Vergleich zu der maximal erreichbaren Inhibition.
Die agonistische bzw. antagonistische Wirkung von Substanzen kann am Bradykinin Rezeptor 1 (B1R) der Spezies Mensch und Ratte mit folgendem Assay bestimmt werden. Gemäß diesem Assay wird der intrazelluläre Ca^2+-Anstieg nach Gabe eines B1 R Agonisten mit Hilfe eines Ca^2+-sensitiven Farbstoffs (Typ Fluo-4, Molecular Probes Europe BV, Leiden NL) im Fluorescent Imaging Plate Reader (FLIPR, Molecular Devices, Sunnyvale, USA) und/oder im Novostar (BMG Labtech GmbH, Offenburg, DE) quantifiziert.
Es werden Chinese Hamster Ovary Zellen (CHO K1 Zellen) verwendet, die stabil mit dem humanen B1 R-Gen (hB1R-Zellen) bzw. dem B1 R-Gen der Ratte (rB1R-Zellen) transfiziert sind. Für funktionelle Untersuchungen werden diese Zellen auf schwarze 96-Loch-Platten mit klarem Boden (BD Biosciences, Heidelberg, DE oder Greiner, Frickenhausen, DE) in einer Dichte von 20.000 - 35.000 Zellen/Loch ausplattiert. Über Nacht werden die Zellen bei 37°C und 5 % CO2 in Kulturmedium (hB1 R-Zellen: Nutrient Mixture Ham's F12, Gibco Invitrogen GmbH, Karlsruhe, Deutschland oder DMEM, Sigma-Aldrich, Taufkirchen, Deutschland; rB1R-Zellen: D-MEM/F12, Gibco Invitrogen GmbH, Karlsruhe, DE) mit 10 Vol-% FBS (Fetal bovine serum, Gibco Invitrogen GmbH, Karlsruhe, DE oder PAN Biotech GmbH, Aidenbach, DE) belassen. Am folgenden Tag werden die Zellen mit 2,13 µM Fluo-4 (Molecular Probes Europe BV, Leiden, NL) in HBSS-Puffer (Hank's buffered saline solution, Gibco Invitrogen GmbH, Karlsruhe, DE) mit 2,5 mM Probenecid (Sigma-Aldrich, Taufkirchen, DE) und 10 mM HEPES (Sigma-Aldrich, Taufkirchen, DE) für 60 min bei 37°C beladen. Anschließend werden die Platten 2 x mit HBSS-Puffer gewaschen und mit HBSS-Puffer versetzt, der zusätzlich 0,1 % BSA (bovines Serumalbumin; Sigma-Aldrich, Taufkirchen, Deutschland), 5,6 mM Glucose und 0,05 % Gelatine (Merck KGaA, Darmstadt, DE) enthält. Nach einer weiteren Inkubation von 20 Minuten bei RT werden die Platten zur Ca^2+-Messung im FLIPR oder Novostar eingesetzt. Alternativ wird mit Puffer A (15 mM HEPES, 80 mM NaCl, 5 mM KCI, 1,2 mM CaCl2, 0,7 mM MgSO4, 2g/L Glucose, 2,5 mM Probenecid) gewaschen und mit Puffer A versetzt mit 2,5 µM Fluo-4 und 0,025 % Pluronic F127 (Sigma-Aldrich, Taufkirchen, DE) beladen. Danach werden die Zellen 2 x mit Puffer A gewaschen und für 30 Minuten mit Puffer A, der zusätzlich 0,05 % BSA und 0,05 % Gelatine enthält bei RT inkubiert und danach zur Ca^2+-Messung im FLIPR oder Novostar eingesetzt.
Die Ca^2+-abhängige Fluoreszenz wird dabei vor und nach Zugabe von Substanzen gemessen (λex = 488 nm, λem = 540 nm). Die Quantifizierung erfolgt durch die Messung der höchsten Fluoreszenzintensität (FC, Fluorescence Counts) über die Zeit.
Das FLIPR-Protokoll besteht aus 2 Substanzzugaben, die im FLIPR pipettiert werden. Bei Messungen im Novostar wird nur die zweite Substanzzugabe im Gerät pipettiert. Beide Geräte messen die Fluoreszenzintensität über die Zeit. Zunächst werden Testsubstanzen (10 µM) auf die Zellen pipettiert und der intrazelluläre Ca^2+-Anstieg mit der Kontrolle (hB1 R: Lys-Des-Arg^9-Bradykinin >= 50 nM; rB1 R: Des-Arg^9-Bradykinin >= 1 µM) verglichen. Daraus ergibt sich die Angabe in % Aktivierung bezogen auf das Ca^2+-Signal nach Zugabe von Lys-Des-Arg^9-Bradykinin (>= 50 nM), bzw. Des-Arg^9-Bradykinin (>=1 µM). Nach 6-20 Minuten Inkubation werden Lys-Des-Arg^9-Bradykinin (hB1 R) bzw. […]

| Compound | % Inhibierung (human B1R) bei 10 µM [%] |
| --- | --- |
| 2-[3-[[(2,3-Dichlor-phenyl)sulfonyl]-methyl]-[1,2,4]oxadiazol-5-yl]-N-(1,3,3-trimethyl-piperidin-4-yl)-acetamid [CC-114] | 61 |
| 2-[3-[[(2-Chlor-6-methyl-phenyl)sulfonyl]-methyl]-[1,2,4]oxadiazol-5-yl]-N-(3,3-dimethyl-piperidin-4-yl)-acetamid [CC-120] | 98 |
| 2-[3-[[(2-Chlor-6-methyl-phenyl)sulfonyl]-methyl]-[1,2,4]oxadiazol-5-yl]-N-(4-dimethylamino-cyclohexyl)-acetamid [CC-128] | 99 |
| 2-[3-[[(4-Chlor-2,5-dimethyl-phenyl)sulfonyl]-methyl]-[1,2,4]oxadiazol-5-yl]-N-cyclopropyl-N-(4-dimethylamino-cyclohexyl)-acetamid [CC-113] | 90 |

same assay, conditions: test substance 10 µM; CHO K1 cells stably transfected with human B1R gene (hB1R-Zellen); agonist Lys-Des-Arg9-Bradykinin at EC80; % inhibition relative to maximal achievable inhibition; read-out: % Inhibierung (human B1R) bei 10 µM

| Compound | inhibition at 10 µM [%] |
| --- | --- |
| COc1cc(C)c(S(=O)(=O)Cc2noc(C(=O)N[C@H]3CCC[C@@H](N4CCN(C)CC4)C3)n2)c(C)c1 [CC-01, 3-[[(4-Methoxy-2,6-dimethyl-phenyl)sulfonyl]-methyl]-N-[(1S,3R)-3-(4-methyl-piperazin-1-yl)-cyclohexyl]-[1,2,4]oxadiazol-5-carbonsäure amid] | 100 |
| COc1cc(C)c(S(=O)(=O)Cc2noc(C(=O)NC3CCN(c4ccc(C(F)(F)F)cn4)CC3)n2)c(C)c1 [CC-02, 3-[[(4-Methoxy-2,6-dimethyl-phenyl)sulfonyl]-methyl]-N-[1-[5-(trifluormethyl)-pyridin-2-yl]-piperidin-4-yl]-[1,2,4]oxadiazol-5-carbonsäure amid] | 86 |
| COc1cc(C)c(S(=O)(=O)Cc2noc(CC(=O)NC3CCN(c4ccc(C(F)(F)F)cn4)CC3)n2)c(C)c1 [CC-03, 2-[3-[[(4-Methoxy-2,6-dimethyl-phenyl)sulfonyl]-methyl]-[1,2,4]oxadiazol-5-yl]-N-[1-[5-(trifluor-methyl)-pyridin-2-yl]-piperidin-4-yl]-acetamid] | 91 |
| COc1cc(C)c(S(=O)(=O)Cc2noc(C(=O)NC3CCC(N(C)C)CC3)n2)c(C)c1 (centres unmarked) [CC-04, N-(4-Dimethylamino-cyclohexyl)-3-[[(4-methoxy-2,6-dimethyl-phenyl)sulfonyl]-methyl]-[1,2,4]oxa-diazol-5-carbonsäure amid] | 100 |
| COc1cc(C)c(S(=O)(=O)Cc2noc(CC(=O)NC3CCC(N(C)C)CC3)n2)c(C)c1 (centres unmarked) [CC-05, N-(4-Dimethylamino-cyclohexyl)-2-[3-[[(4-methoxy-2,6-dimethyl-phenyl)sulfonyl]-methyl]-[1,2,4]oxadiazol-5-yl]-acetamid] | 100 |
| COc1cc(C)c(S(=O)(=O)Cc2noc(CC(=O)N(C)CCC3CCN(c4ccncc4)CC3)n2)c(C)c1 [CC-06, 2-[3-[[(4-Methoxy-2,6-dimethyl-phenyl)sulfonyl]-methyl]-[1,2,4]oxadiazol-5-yl]-N-methyl-N-[2-(1-pyridin-4-yl-piperidin-4-yl)-ethyl]-acetamid] | 100 |
| Cc1cccc(Cl)c1S(=O)(=O)Cc1noc(C(=O)NC2CCN(c3ccc(C(F)(F)F)cn3)CC2)n1 [CC-09, 3-[[(2-Chlor-6-methyl-phenyl)sulfonyl]-methyl]-N-[1-[5-(trifluormethyl)-pyridin-2-yl]-piperidin-4-yl]-[1,2,4]oxadiazol-5-carbonsäure amid] | 54 |
| COc1cc(C)c(S(=O)(=O)Cc2noc(C(=O)N(C)CCC3CCN(c4ccncc4)CC3)n2)c(C)c1 [CC-10, 3-[[(4-Methoxy-2,6-dimethyl-phenyl)sulfonyl]-methyl]-N-methyl-N-[2-(1-pyridin-4-yl-piperidin-4-yl)-ethyl]-[1,2,4]oxadiazol-5-carbonsäure amid] | 100 |
| Cc1cccc(Cl)c1S(=O)(=O)Cc1noc(C(=O)NC2CCC(N(C)C)CC2)n1 (centres unmarked) [CC-11, 3-[[(2-Chlor-6-methyl-phenyl)sulfonyl]-methyl]-N-(4-dimethylamino-cyclohexyl)-[1,2,4]oxadiazol-5-carbonsäure amid] | 95 |
| Cc1cc(S(=O)(=O)Cc2noc(C(=O)NC3CCC(N(C)C)CC3)n2)c(C)cc1Cl (centres unmarked) [CC-13, 3-[[(4-Chlor-2,5-dimethyl-phenyl)sulfonyl]-methyl]-N-(4-dimethylamino-cyclohexyl)-[1,2,4]oxa-diazol-5-carbonsäure amid] | 99 |
| Cc1cccc(Cl)c1S(=O)(=O)Cc1noc(C(=O)N(C)CCC2CCN(c3ccncc3)CC2)n1 [CC-14, 3-[[(2-Chlor-6-methyl-phenyl)sulfonyl]-methyl]-N-methyl-N-[2-(1-pyridin-4-yl-piperidin-4-yl)-ethyl]-[1,2,4]oxadiazol-5-carbonsäure amid] | 100 |
| Cc1cc(S(=O)(=O)Cc2noc(C(=O)N(C)CCC3CCN(c4ccncc4)CC3)n2)c(C)cc1Cl [CC-16, 3-[[(4-Chlor-2,5-dimethyl-phenyl)sulfonyl]-methyl]-N-methyl-N-[2-(1-pyridin-4-yl-piperidin-4-yl)-ethyl]-[1,2,4]oxadiazol-5-carbonsäure amid] | 100 |
| COc1cc(C)c(S(=O)(=O)Cc2noc(C(=O)NC3CCNCC3(C)C)n2)c(C)c1 (centres unmarked) [CC-17, N-(3,3-Dimethyl-piperidin-4-yl)-3-[[(4-methoxy-2,6-dimethyl-phenyl)sulfonyl]-methyl]-[1,2,4]oxa-diazol-5-carbonsäure amid] | 100 |
| COc1cc(C)c(S(=O)(=O)Cc2noc(CC(=O)NC3CCNCC3(C)C)n2)c(C)c1 (centres unmarked) [CC-18, N-(3,3-Dimethyl-piperidin-4-yl)-2-[3-[[(4-methoxy-2,6-dimethyl-phenyl)sulfonyl]-methyl]-[1,2,4]oxadiazol-5-yl]-acetamid] | 100 |
| Cc1cccc(Cl)c1S(=O)(=O)Cc1noc(C(=O)NC2CCC(N3CCCC3)CC2(C)C)n1 (centres unmarked) [CC-20, 3-[[(2-Chlor-6-methyl-phenyl)sulfonyl]-methyl]-N-(2,2-dimethyl-4-pyrrolidin-1-yl-cyclohexyl)-[1,2,4]oxadiazol-5-carbonsäure amid] | 89 |
| COc1cc(C)c(S(=O)(=O)Cc2noc(C(=O)NC3CCC(N4CCCC4)CC3(C)C)n2)c(C)c1 (centres unmarked) [CC-21, N-(2,2-Dimethyl-4-pyrrolidin-1-yl-cyclohexyl)-3-[[(4-methoxy-2,6-dimethyl-phenyl)sulfonyl]-methyl]-[1,2,4]oxadiazol-5-carbonsäure amid] | 100 |
